Assay [1] has as its system Wnt activity (SW480 colon carcinoma cells stably expressing the Sp5-Luc reporter gene). The assay can be described thus: Wnt activity screening assay (Sp5-Luc reporter gene assay). The note with it: Homo sapiens; for EC50: 36 to 48 hours; for inhibition at 10 µM: read-out: percent inhibition at 10 μM (given for EC50 >10 μM), 10 μM. It is filed as cell-based, human. A digest of the protocol: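 SW480 colon carcinoma cells stably carrying a lentiviral luciferase reporter driven by an Sp5 promoter with eight TCF/LEF sites, plated at 4,000 cells/well in DMEM with 1% FBS. Compound exposure for 36–48 h at 37 °C, then luminescence read. Signals normalized to DMSO; EC50 from four-parameter nonlinear fit.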
Background: A reporter such as luciferase makes a cellular process visible.

The next assay addresses recombinant GSK3β kinase (Homo sapiens (Human), UniProt P49841). Nature of the assay: GSK3β kinase assay (Ser/Thr 09 peptide Z-lyte, FRET).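 Also: FRET read-out as coumarin over fluorescein emission ratio, compounds incubated one hour at room temperature, IC50 from dose-response curve fit.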 Format: biochemical.
Assay [2] relates to Tau phosphorylation at Ser396 (pSer396) in SH-SY5Y cells. Nature of the assay: Tau phosphorylation at Ser396 (pSer396) cell assay, ELISA/western blot. The note with it: Homo sapiens. It is filed as cell-based, human. A general note: An ELISA detects its analyte on a solid surface through an enzyme-linked reagent.
In assay [3] the test system is LL29 cells (primary human fibroblasts derived from IPF patients), α-smooth muscle actin. The assay can be described thus: Inhibition of fibrotic process: TGF-β1-treated primary human fibroblasts, αSMA staining.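 As to all read-outs here: controls were TGF-β1-stimulated wells with DMSO vehicle as the positive reference and cells given DMSO alone as the negative reference.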 Format: cell-based. The note with it: Homo sapiens, Fibroblast; for EC50: 96 h, TGF-β1 20 ng/mL, 4 days, % cells positive for αSMA; for inhibition at 10 µM: read-out: percent inhibition at 10 μM (given for EC50 >10 μM), TGF-β1, αSMA, 10 μM.

For assay [4], the system named is IL-6 in human peripheral blood mononuclear cells (huPBMCs). Nature of the assay: IL-6 inhibition in LPS-stimulated human peripheral blood mononuclear cells (HTRF). The note with it: Homo sapiens, PBMC; for EC50: LPS 50 ng/mL, 22 hours, IL-6 HTRF; for inhibition at 10 µM: read-out: percent inhibition at 10 μM (given for EC50 >10 μM), LPS, IL-6, 10 μM. Format: cell-based. A digest of the protocol:
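Fresh normal human PBMCs at 1×10e6 cells/mL in RPMI with 1% FBS received compound, then 50 ng/mL E. coli 0111:B4 LPS 2 h later, and were incubated a further 22 h at 37° C. IL-6 read by HTRF (665/620 nm ratio), normalized to DMSO; EC50 from 4-parameter fit.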

The target in assay [5] is recombinant DYRK1A kinase (Homo sapiens (Human), UniProt Q13627). Nature of the assay: DYRK1A kinase assay (Ser/Thr 18 peptide Z-lyte, FRET).
Assay [6] concerns pT212Tau in Dyrk1a- and MAPT-overexpressing HEK293T cells. The assay can be described thus: Tau phosphorylation at Threonine 212 (pT212Tau) sandwich ELISA in double transfected cells. The note with it: Homo sapiens, HEK-293T, read-out: Thr212 EC50 (μM).
Method: HEK293T cells (transfectable human embryonic kidney cells) were cultured in DMEM medium supplemented with 10% FBS and 1% penicillin/streptomycin.
HEK293T cells were transiently transfected to overexpress Dyrk1a and microtubule-associated protein Tau (MAPT) genes. Specifically, Dyrk1a and MAPT expression vectors were obtained from OriGene (10 μg of each, catalog numbers SC314641 and RC216166, respectively). […] HEK293T cells were seeded at 1.0×10^7 cells in 10 mL per T-75 flask. […] One T-75 flask was designated as a no-vector negative control for pT212Tau signal.
After 4-6 hours of incubation in transfection reagents, transiently double transfected HEK293T cells were dissociated by treatment with trypsin EDTA and seeded at 1.0×10^5 cells in 100 μL per well in 96-well plates. No-vector negative controls were seeded in separate 96-well plates to avoid the risk of the negative control cells picking up the overexpression during incubation.
96-well flat-bottom plates were coated with 100 μL per well anti-HT7 capture antibody (ThermoFisher, MN1000) diluted 1:300 in 1×PBS at 4° C. overnight, with shaking at 500 rpm.
Cells were then lysed with 100 μL 1×RIPA buffer supplemented with phosphatase and protease inhibitors (each diluted to a final 1×). […] V-bottom plates were centrifuged at 4000 rpm, 4° C., for 15 minutes, and 100 μL of lysate supernatant from each well was directly tested for pT212Tau signal by sandwich ELISA.
Where [7] appears, read: GSK3β kinase, head says EC50, method says IC50, ATP 46 μM.
[8] abbreviates: SH-SY5Y cells, overnight (16-18 h), read-out: pSer396 Tau EC50.
[9] abbreviates: DYRK1A kinase, head says EC50, method says IC50, ATP 30 μM.

SMILES strings stand for the structures. Where two headings read alike, the source gives them in different places.

recombinant GSK3β kinase, sequence (P49841 whole entry): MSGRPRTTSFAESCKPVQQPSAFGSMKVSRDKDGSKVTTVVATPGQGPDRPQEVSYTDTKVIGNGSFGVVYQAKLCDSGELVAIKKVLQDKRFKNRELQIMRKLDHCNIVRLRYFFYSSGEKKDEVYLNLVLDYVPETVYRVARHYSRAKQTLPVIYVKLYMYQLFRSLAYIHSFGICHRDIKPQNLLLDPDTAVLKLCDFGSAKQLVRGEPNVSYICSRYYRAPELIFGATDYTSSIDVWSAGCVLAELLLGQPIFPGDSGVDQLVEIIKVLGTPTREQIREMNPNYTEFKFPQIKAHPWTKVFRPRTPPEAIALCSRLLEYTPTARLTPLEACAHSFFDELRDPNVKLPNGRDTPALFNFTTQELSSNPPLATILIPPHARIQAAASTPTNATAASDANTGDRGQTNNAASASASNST

Turning to `O=C(Nc1cc2cc(-c3cccnc3)ccc2cn1)C1CC1` [Compound 6, N-(6-(Pyridin-3-yl)isoquinolin-3-yl)cyclopropanecarboxamide], the EC50 in assay [1] was found to be 1100 nM; on recombinant GSK3β kinase (setting [7]), 56 nM; in assay [2] (setting [8]), 0.798 µM; in assay [3], 197 nM; in assay [4], 1030 nM; in assay [5] (setting [9]), 2 nM. Moreover, the EC50 in assay [6] was determined as 0.01 µM.

As for `O=C(CN1CCCC1)Nc1cc2cc(-c3cccnc3)ccc2cn1` [Compound 7, N-(6-(Pyridin-3-yl)isoquinolin-3-yl)-2-(pyrrolidin-1-yl)acetamide], the concentration giving a half-maximal response (EC50) was determined as 3840 nM in assay [1]; 247 nM at recombinant GSK3β kinase (setting [7]); 2.2 µM in assay [2] (setting [8]); 4350 nM in assay [3]; 9260 nM in assay [4]; 7 nM in assay [5] (setting [9]). For the same compound, the EC50 in assay [6] came out at 0.225 µM.

Turning to `O=C(Nc1cc2cc(-c3cccnc3)ccc2cn1)C12CCN(CC1)CC2` [Compound 9, N-(6-(Pyridin-3-yl)isoquinolin-3-yl)quinuclidine-4-carboxamide], the 50% effective concentration (EC50) is above 10000 nM in assay [1]; above 10 µM in assay [2] (SH-SY5Y, read-out: pSer396 Tau EC50 (μM)); 2270 nM in assay [3]; above 10000 nM in assay [4]; 26 nM in assay [5] (setting [9]); 0.213 µM in assay [6]. The inhibition at 10 µM was 11.8% in assay [1] and 3.9% in assay [4].

Regarding `O=C(CN1CCCC1)Nc1cc2cc(-c3cncc(F)c3)ccc2cn1` [Compound 18, N-(6-(5-Fluoropyridin-3-yl)isoquinolin-3-yl)-2-(pyrrolidin-1-yl)acetamide], the concentration for a half-maximal effect (EC50) in assay [1] is above 10000 nM; on recombinant GSK3β kinase (setting [7]), 1180 nM; in assay [3], 5970 nM; in assay [4], above 10000 nM; in assay [5] (setting [9]), 39 nM; in assay [6], 0.053 µM. For the same compound, the inhibition at 10 µM in assay [1] amounted to 9.2%; in assay [4], 5.8%.

With `CN1CCN(CC(=O)Nc2cc3cc(-c4cncc(F)c4)ccc3cn2)CC1` [Compound 20, N-(6-(5-Fluoropyridin-3-yl)isoquinolin-3-yl)-2-(4-methylpiperazin-1-yl) acetamide], the EC50 in assay [1] is above 10000 nM; on recombinant GSK3β kinase, 3280 nM; in assay [3], 3140 nM; in assay [4], above 10000 nM; in assay [5] it was 31 nM; in assay [6], 0.252 µM. Moreover, the inhibition at 10 µM is 17.4% in assay [1] and 3.6% in assay [4].

For `CN1CCC(C(=O)Nc2cc3cc(-c4cncc(C#N)c4)ccc3cn2)CC1` [Compound 32, N-(6-(5-Cyanopyridin-3-yl)isoquinolin-3-yl)-1-methylpiperidine-4-carboxamide], the EC50 in assay [1] was above 10000 nM; at recombinant GSK3β kinase (setting [7]) it was 6660 nM; in assay [3], 8400 nM; in assay [4], above 10000 nM; in assay [5] (setting [9]), 57 nM; in assay [6] it was 0.161 µM. The inhibition at 10 µM in assay [1] was 24.2%; in assay [4] it was 5.1%.

Consider `O=C(Nc1cc2cc(-c3cncc(NC4CCNCC4)n3)ccc2cn1)C1CCCCC1` [Compound 44, N-(6-(6-(piperidin-4-ylamino)pyrazin-2-yl)isoquinolin-3-yl) cyclohexanecarboxamide], for which the concentration giving a half-maximal response (EC50) in assay [1] was 319 nM; on recombinant GSK3β kinase (setting [7]), 193 nM; in assay [3] it was 401 nM; in assay [4], 375 nM; in assay [5] (setting [9]) it was 1 nM; in assay [6], below 0.003 µM.

As to `O=C(Nc1cc2cc(-c3cnccn3)ccc2cn1)C1CCN(C2COC2)CC1` [Compound 78, 1-(Oxetan-3-yl)-N-(6-(pyrazin-2-yl)isoquinolin-3-yl)piperidine-4-carboxamide], the EC50 in assay [1] is above 10000 nM; on recombinant GSK3β kinase (setting [7]), 804 nM; in assay [2] (setting [8]), above 10 µM; in assay [3], 2310 nM; in assay [4], above 10000 nM; in assay [5] (setting [9]), 13 nM. Besides, the inhibition at 10 µM in assay [1] came out at 28.1%; in assay [4], 8.9%.

For the compound `CC(C)CN1CCCC(C(=O)Nc2cc3cc(-c4cnccn4)ccc3cn2)CC1` (stereo not shown) [Compound 81, 1-Isobutyl-N-(6-(pyrazin-2-yl)isoquinolin-3-yl)azepane-4-carboxamide], the concentration giving a half-maximal response (EC50) in assay [1] was above 10000 nM; at recombinant GSK3β kinase (setting [7]) it was 1300 nM; in assay [3] it was 5460 nM; in assay [4], above 10000 nM; in assay [5] (setting [9]) it was 29 nM; in assay [6], 0.37 µM. The figures for the inhibition at 10 µM in assay [1] and in assay [4] were 3.9% and 1.6%, respectively.

`O=C(Nc1cc2cc(-c3cncc(NC4CCNCC4)n3)ccc2cn1)C1CCOCC1` [Compound 109, N-(6-(6-(Piperidin-4-ylamino)pyrazin-2-yl)isoquinolin-3-yl)tetrahydro-2H-pyran-4-carboxamide]: the 50% effective concentration (EC50) in assay [1] came to 738 nM; at recombinant GSK3β kinase (setting [7]), 264 nM; in assay [3], 27 nM; in assay [4] it was 674 nM; in assay [5] (setting [9]) it was 2 nM; in assay [6], 0.014 µM.

With `CN1CCN(c2cc(C(=O)Nc3cc4cc(-c5cnc6ocnc6c5)ccc4cn3)ccn2)CC1` [Compound 132, 2-(4-Methylpiperazin-1-yl)-N-(6-(oxazolo[5,4-b]pyridin-6-yl)isoquinolin-3-yl)isonicotinamide], the concentration for a half-maximal effect (EC50) in assay [1] was 3150 nM; on recombinant GSK3β kinase (setting [7]), above 10000 nM; in assay [3], 1350 nM; in assay [4] it was above 10000 nM; in assay [5] (setting [9]), 14 nM; in assay [6], 6.2 µM. The inhibition at 10 µM in assay [4] is 8.5%.

Consider `Cc1cc2ncc(-c3ccc4cnc(NC(=O)c5ccnc(N6CCN(C)CC6)c5)cc4c3)cc2[nH]1` [Compound 135, N-(6-(2-Methyl-1H-pyrrolo[3,2-b]pyridin-6-yl)isoquinolin-3-yl)-2-(4-methylpiperazin-1-yl)isonicotinamide], for which the EC50 in assay [1] is 2590 nM; at recombinant GSK3β kinase (setting [7]), above 10000 nM; in assay [3], 2480 nM; in assay [4] it was 2110 nM; in assay [5] (setting [9]), 15 nM; in assay [6], 3.2 µM.

For the compound `O=C(CN1CCOCC1)Nc1cc2cc(-c3cccnc3)c(F)cc2cn1` [Compound 144, N-(7-Fluoro-6-(pyridin-3-yl)isoquinolin-3-yl)-2-morpholinoacetamide], the EC50 in assay [1] was above 10000 nM; on recombinant GSK3β kinase (setting [7]), 1250 nM; in assay [3], 4600 nM; in assay [4], above 10000 nM; in assay [5] (setting [9]) it was 9 nM; in assay [6] it was 0.051 µM. Also, the figures for the inhibition at 10 µM in assay [1] and in assay [4] were 23% and 9.4%, respectively.

As for `CN1CCN(CC(=O)Nc2cc3cc(-c4cccnc4)c(F)cc3cn2)CC1` [Compound 145, N-(7-Fluoro-6-(pyridin-3-yl)isoquinolin-3-yl)-2-(4-methylpiperazin-1-yl) acetamide], the EC50 is above 10000 nM in assay [1]; 2890 nM on recombinant GSK3β kinase (setting [7]); 6520 nM in assay [3]; above 10000 nM in assay [4]; 13 nM in assay [5] (setting [9]); 0.81 µM in assay [6]. The inhibition at 10 µM came to 26.2% in assay [1] and 5.9% in assay [4].

On to `COc1cncc(-c2ccc3cnc(NC(=O)CN4CCOCC4)cc3c2)c1` [Compound 147, N-(6-(5-Methoxypyridin-3-yl)isoquinolin-3-yl)-2-morpholinoacetamide], for which the concentration giving a half-maximal response (EC50) in assay [1] is above 10000 nM; on recombinant GSK3β kinase (setting [7]) it was 1020 nM; in assay [3], above 10000 nM; in assay [4], above 10000 nM; in assay [5] (setting [9]) it was 20 nM; in assay [6], 0.147 µM. Also, the inhibition at 10 µM stood at 38.8% in assay [1], 24.4% in assay [3] and 14.7% in assay [4].

`[2H]C1([2H])OC([2H])([2H])C([2H])([2H])N(CC(=O)Nc2cc3cc(-c4cccnc4)ccc3cn2)C1([2H])[2H]` [Compound 151, 2-(Morpholino-d8)-N-(6-(pyridin-3-yl)isoquinolin-3-yl)acetamide]: the concentration giving a half-maximal response (EC50) in assay [1] was above 10000 nM; at recombinant GSK3β kinase, 795 nM; in assay [3], above 10000 nM; in assay [4], above 10000 nM; in assay [5], 13 nM; in assay [6] it was 0.009 µM. The inhibition at 10 µM was 10.7% in assay [1], 21.2% in assay [3] and 6% in assay [4].

A word on the EC50: it is the concentration that produces a half-maximal response. For orientation: inhibition means the percentage by which the read-out fell short of the control.
